One test concerns the target T1, PLA2 (Homo sapiens, UniProt P14555).
T1 construct: The enzyme is isolated from human platelets; from tissue; host or cells: human platelets
T1 sequence (P14555 21-144): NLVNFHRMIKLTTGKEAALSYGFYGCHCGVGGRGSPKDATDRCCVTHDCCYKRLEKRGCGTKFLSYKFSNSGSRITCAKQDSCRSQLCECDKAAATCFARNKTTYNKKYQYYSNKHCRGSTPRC
As to the kind of experiment: PLA2 Inhibition Assay (14C-oleate labeled E. coli membrane substrate). Particulars: 100 μM (sic, Table 6); PLA2 from human platelets; pH 7, 37° C. The test is classed as biochemical. Here is the method:
The method used is similar to that reported by Franson, et al. [Jesse, R. L. and Franson R. C., Biochim. Biophys. Acta 575: 467-470 (1979); Franson, R. C., Patriarca, P., and Elsback, P., J. Lipid Res. 15: 380-388 (1974)]. The enzyme is isolated from human platelets. The substrate used consists of ^14 C-oleate labeled Escherichia coli membranes. E. coli cells are grown in the presence of ^14 C-oleic acid and then autoclaved to prepare the membranes.
Various concentrations of test compounds are preincubated with PLA2 (3.6 mg/mL in a buffer consisting of 25 mM HEPES (pH 7)), 150 mM NaCl, 5.0 mM CaCl2, and 10% DMSO (v/v, test compound solvent) at 37° C. for 7 minutes. The E. coli substrate is then added (0.1 mM phospholipid, 0,005 mCi ^14 C) and the reaction is then incubated at 37° C. for 30 minutes. The reaction is then terminated by the addition of 1.9 mL tetrahydrofuran (THF), and the entire solution is applied to a solid-phase extraction column (aminopropyl resin, Analytichem). The column is rinsed with an additional 1 mL of THF. The free fatty acid product of the reaction is then eluted from the column with 1 mL 2% acetic acid in THF and collected in a scintillation vial. The amount of free fatty acid product is determined by liquid scintillation counting. The amount of inhibition produced by the test compound is calculated by comparing the counts obtained in the presence of the compound to those obtained in its absence (solvent only). Background counts were determined by performing incubations in the absence of enzyme.
Percent inhibition is determined by the equation: [formula]
Consider `CC1(C)CCC(C)(C)c2cc(COc3ccccc3-c3cccc(C(=O)O)c3)ccc21` [Structure 52a, 2-[5,6,7,8-tetrahydro-5,5,8,8-tetramethyl-2-naphthalenyl]methoxy-[1,1'-biphenyl]-3'-carboxylic acid], for which the “% Inhibition of PLA2 at 100 .infin.M” value is on record as 83%.

For `CC1(C)CCC(C)(C)c2cc(COc3ccccc3-c3ccc(C(=O)O)cc3)ccc21` [Structure 52b, 2-[5,6,7,8-tetrahydro-5,5,8,8-tetramethyl-2-naphthalenyl]methoxy-[1,1'-biphenyl]-4'-carboxylic acid], the “% Inhibition of PLA2 at 100 .infin.M” value worked out at 66%.

As for `CC1(C)CCC(C)(C)c2cc(COc3ccccc3-c3ccccc3C(=O)O)ccc21` [Structure 52c, 2-[5,6,7,8-tetrahydro-5,5,8,8-tetramethyl-2-naphthalenyl]methoxy-[1,1'-biphenyl]-2'-carboxylic acid], the “% Inhibition of PLA2 at 100 .infin.M” value was determined as 72%.

In the case of `CC1(C)CCC(C)(C)c2cc(COc3ccccc3-c3cccc(CC(=O)O)c3)ccc21` [Structure 57, 2-[5,6,7,8-tetrahydro-5,5,8,8-tetramethyl-2-naphthalenyl]methoxy-[1,1'-biphenyl]-3'-acetic acid], the “% Inhibition of PLA2 at 100 .infin.M” value was found to be 92%.

The same test, now with this note: 100 μM; PLA2 from human platelets; pH 7, 37° C.
As to `CC1(C)CCC(C)(C)c2cc(COc3cccc(C(=O)O)c3-c3ccccc3)ccc21` [Structure 14n, 2-(5,6,7,8-tetrahydro-5,5,8,8-tetramethyl-2-naphthalenyl)methoxy-[1,1'-biphenyl]-6-carboxylic acid], the inhibition (in general, how much of the control response was suppressed) at 100 µM was found to be 90%.

As for `CC(C)(C)c1ccc(-c2c(OCc3ccc4c(c3)C(C)(C)CCC4(C)C)cccc2C(=O)O)cc1` [Structure 14o, 2-(5,6,7,8-tetrahydro-5,5,8,8-tetramethyl-2-naphthalenyl)methoxy-[1,1'-biphenyl]-4'-(1,1-dimethylethyl)-6-carboxylic acid], the inhibition at 100 µM came to 99%.

As for `CC1(C)CCC(C)(C)c2cc(COc3cccc(C(=O)O)c3-c3ccc(CCO)cc3)ccc21` [Structure 14p, 2-(5,6,7,8-tetrahydro-5,5,8,8-tetramethyl-2-naphthalenyl)methoxy-4'-(2-hydroxy-1-ethyl)-[1,1'-biphenyl]-6-carboxylic acid], the inhibition at 100 µM was 88%.

On to `CC1(C)CCC(C)(C)c2cc(COc3cccc(C(=O)O)c3-c3cccc(CC(=O)O)c3)ccc21` [Structure 14q, 6-carboxy-2-[5,6,7,8-tetrahydro-5,5,8,8-tetramethyl-2-naphthalenyl]methoxy-[1,1'-biphenyl]-3'-acetic acid], for which the inhibition at 100 µM amounted to 72%.

In turn, `O=C(O)Cc1cccc(/C=C/c2ccccc2)c1-c1cccc(C(=O)O)c1` [Structure 28a, (E) 2-styryl-6-carboxymethyl-1,1'-biphenyl-3'-carboxylic acid] registered an inhibition at 100 µM of 28%.

Consider `C/C(=C\c1cccc(CC(=O)O)c1-c1cccc(C(=O)O)c1)c1ccc2c(c1)C(C)(C)CCC2(C)C` [Structure 28b, 3'-carboxy-(E)-2-[(5,6,7,8-tetrahydro-5,5,8,8,-tetramethyl-2-naphthalenyl)-1-propenyl]-[1,1'-biphenyl]-6-acetic acid], for which the inhibition at 100 µM came out at 96%.

In turn, `CC1(C)CCC(C)(C)c2cc3cc(-c4cccc(CC(=O)O)c4-c4cccc(C(=O)O)c4)ccc3cc21` [Structure 28c, 3'-carboxy-2-[(1,2,3,4-tetrahydro-1,1,4,4-tetramethyl)-6-anthracenyl]-[1,1'-biphenyl]-6-acetic acid] had an inhibition at 100 µM of 93%.

As to `CCCCCOc1ccc(COc2cccc(CC(=O)O)c2-c2cccc(C(=O)O)c2)cc1OCCCCC` [Structure 30a, 2-[(3,4-bispentyloxy)phenyl]methoxy-3'-carboxy-[1,1'-biphenyl]-6-acetic acid], the inhibition at 100 µM is 96%.

In turn, `O=C(O)Cc1cccc(OCc2ccc(OC3CCCC3)c(OC3CCCC3)c2)c1-c1cccc(C(=O)O)c1` [Structure 30b, 2-[(3,4-biscyclopentyloxy)phenyl]methoxy-3'-carboxy-[1,1'-biphenyl]-6-acetic acid] came in with an inhibition at 100 µM of 79%.

Regarding `CCCCCCCCCCOc1ccc(COc2cccc(CC(=O)O)c2-c2cccc(C(=O)O)c2)cc1` [Structure 30c, 3'-carboxy-2-[4-decyloxyphenyl]methoxy-[1,1'-biphenyl]-6-acetic acid], the inhibition at 100 µM came out at 99%.

`COc1cc(COc2cccc(CC(=O)O)c2-c2cccc(C(=O)O)c2)ccc1C12CC3CC(CC(C3)C1)C2` [Structure 30d, 3'-carboxy-2-[4-(1-adamantyl)-3-methoxyphenyl]methoxy-[1,1'-biphenyl]-6-acetic acid]: at 100 µM the inhibition was 97%.

The molecule `CC1(C)CCC(C)(C)c2cc(COc3cccc(CC(=O)O)c3-c3ccccc3)ccc21` [Structure 30e, 2-(5,6,7,8-tetrahydro-5,5,8,8-tetramethyl-2-naphthalenyl)methoxy-[1,1'-biphenyl]-6-acetic acid] came in with an inhibition at 100 µM of 59%.

With `CC1(C)CCC(C)(C)c2cc(COc3cccc(CC(=O)O)c3-c3cccc(C(=O)O)c3)ccc21` [Structure 30f, 3'-carboxy-2-(5,6,7,8-tetrahydro-5,5,8,8-tetramethyl-2-naphthalenyl)methoxy-[1,1'-biphenyl]-6-acetic acid], the inhibition at 100 µM turned out to be 80%.

In turn, `CC(C)=CCOc1ccc(COc2cccc(CCC(=O)O)c2-c2cccc(C(=O)O)c2)cc1OCC=C(C)C` [Structure 37a, 2-[3,4-bis(3-methyl-2-butenyloxy)phenyl]methoxy-3'-carboxy-[1,1'-biphenyl]-6-propanoic acid] displayed an inhibition at 100 µM of 55%.

`O=C(O)CCc1cccc(OCc2ccc(OC3CCCC3)c(OC3CCCC3)c2)c1-c1cccc(C(=O)O)c1` [Structure 37b, 2-[3,4-bis(cyclopentyloxy)phenyl]methoxy-3'-carboxy-[1,1'-biphenyl]-6-propanoic acid] came in with an inhibition at 100 µM of 51%.

On to `CCCCCOc1ccc(COc2cccc(CCC(=O)O)c2-c2cccc(C(=O)O)c2)cc1OCCCCC` [Structure 37c, 2-[3,4-bis (pentyloxy)phenyl]methoxy-3'-carboxy-[1,1'-biphenyl]-6-propanoic acid], for which 100 µM produced 59% inhibition.

Molecule `CC1(C)CCC(C)(C)c2cc(COc3cccc(CCC(=O)O)c3-c3cccc(C(=O)O)c3)ccc21` [Structure 37d, 3'-carboxy-2-[5,6,7,8-tetrahydro-5,5,8,8-tetramethyl-2-naphthalenyl]methoxy-[1,1'-biphenyl]-6-propanoic acid] came in with an inhibition at 100 µM of 54%.

On to `CC(C)=CCOc1ccc(COc2cccc(/C=C/C(=O)O)c2-c2cccc(C(=O)O)c2)cc1OCC=C(C)C` [Structure 39a, 2-[3,4-his (3-methyl-2-butenyloxy)phenyl]methoxy-3'-carboxy-[1,1'-biphenyl]-6-[(E)-3-propenoic acid]], for which testing at 100 µM gave an inhibition of 73%.

Molecule `O=C(O)/C=C/c1cccc(OCc2ccc(OC3CCCC3)c(OC3CCCC3)c2)c1-c1cccc(C(=O)O)c1` [Structure 39b] had an inhibition at 100 µM of 86%.

As to `CCCCCOc1ccc(COc2cccc(/C=C/C(=O)O)c2-c2cccc(C(=O)O)c2)cc1OCCCCC` [Structure 39c], the inhibition at 100 µM stood at 59%.

Molecule `CC1(C)CCC(C)(C)c2cc(COc3cccc(/C=C/C(=O)O)c3-c3cccc(C(=O)O)c3)ccc21` [Structure 39d, 3'-carboxy-2-[5,6,7,8-tetrahydo-5,5,8,8-tetramethyl-2-naphthalenyl]methoxy-[1,1'-biphenyl]-6-[(E)-3-propenoic acid]] yielded an inhibition at 100 µM of 72%.

Regarding `CC1(C)CCC(C)(C)c2cc(COc3ccc(C(=O)O)cc3-c3ccccc3)ccc21` [Structure 44, 2-[5,6,7,8-tetrahydro-5,5,8,8-tetramethyl-2-naphthalenyl]methoxy-[1,1'-biphenyl]-5-carboxylic acid], the inhibition at 100 µM came out at 70%.

The molecule `CC1(C)CCC(C)(C)c2cc(COc3c(C(=O)O)cccc3-c3ccccc3)ccc21` [Structure 48, 2-[5,6,7,8-tetrahydro-5,5,8,8-tetramethyl-2-naphthalenyl]methoxy-[1,1'-biphenyl]-3-carboxylic acid] had an inhibition at 100 µM of 88%.

The record behind these values is US5391817A, “Biaryl phospholipase A2 inhibitors” (Bristol-Myers Squibb, priority 1993, dated 1995).
